In the NIST ThermoML archive (doi:10.1016/j.jct.2013.10.034):
Numbers after ± are expanded uncertainties.

Experiment: xn = mol fraction of the nth substance listed
Conditions: 100 kPa, Liquid; for mass density: Vibrating tube method; for viscosity: Falling or rolling sphere viscometry

For `CCCC[N+]1(C)CCCC1.N#CN=C=[N-]` [1-butyl-1-methylpyrrolidinium dicyanamide] + O, the mass density (308.15 K, x1 = 0.0729) was 1001.6 ± 0.2 kg/m3, the mass density (308.15 K, x1 = 0.1652) was 1006.1 ± 0.22 kg/m3 and the mass density (308.15 K, x1 = 0.2234) was 1007.7 ± 0.24 kg/m3. It also gave a mass density (308.15 K, x1 = 0.3163) of 1009.37 ± 0.28 kg/m3, a mass density (308.15 K, x1 = 0.3548) of 1009.87 ± 0.3 kg/m3 and a mass density (308.15 K, x1 = 0.4198) of 1010.57 ± 0.35 kg/m3. For the same compound, the mass density (308.15 K, x1 = 0.4762) was 1011.05 ± 0.4 kg/m3, the mass density (308.15 K, x1 = 0.5239) was 1011.4 ± 0.45 kg/m3 and the mass density (308.15 K, x1 = 0.6244) was 1011.99 ± 0.58 kg/m3. For the same compound, the mass density (308.15 K, x1 = 0.629) was 1012.02 ± 0.59 kg/m3, the mass density (308.15 K, x1 = 0.711) was 1012.42 ± 0.73 kg/m3 and the mass density (308.15 K, x1 = 0.7413) was 1012.56 ± 0.78 kg/m3. The mass density (308.15 K, x1 = 0.8776) was 1013.13 ± 1.1 kg/m3, the mass density (308.15 K, x1 = 0.9732) was 1013.47 ± 1.3 kg/m3 and the mass density (308.15 K, x1 = 1) was 1013.58 ± 1.3 kg/m3. For the same compound, the viscosity (313.15 K, x1 = 0.0729) was 2.83 ± 0.45 mPa·s, the viscosity (313.15 K, x1 = 0.1652) was 5.143 ± 0.82 mPa·s and the viscosity (313.15 K, x1 = 0.2234) was 6.408 ± 1 mPa·s. The viscosity (313.15 K, x1 = 0.3163) was 8.303 ± 1.3 mPa·s, the viscosity (313.15 K, x1 = 0.3548) was 9 ± 1.4 mPa·s and the viscosity (313.15 K, x1 = 0.4198) was 10.23 ± 1.6 mPa·s. The viscosity (313.15 K, x1 = 0.4762) was 11.23 ± 1.8 mPa·s, the viscosity (313.15 K, x1 = 0.5239) was 12 ± 1.9 mPa·s and the viscosity (313.15 K, x1 = 0.6244) was 13.83 ± 2.2 mPa·s. The viscosity (313.15 K, x1 = 0.629) was 13.91 ± 2.2 mPa·s, the viscosity (313.15 K, x1 = 0.711) was 15.4 ± 2.5 mPa·s and the viscosity (313.15 K, x1 = 0.7413) was 15.98 ± 2.6 mPa·s. It also gave a viscosity (313.15 K, x1 = 0.8776) of 18.78 ± 3 mPa·s, a viscosity (313.15 K, x1 = 0.9732) of 21.05 ± 3.4 mPa·s and a viscosity (313.15 K, x1 = 1) of 21.7 ± 3.5 mPa·s. For the same compound, the mass density (313.15 K, x1 = 0.0729) was 998.69 ± 0.21 kg/m3, the mass density (313.15 K, x1 = 0.1652) was 1002.9 ± 0.22 kg/m3 and the mass density (313.15 K, x1 = 0.2234) was 1004.59 ± 0.23 kg/m3. It also gave a mass density (313.15 K, x1 = 0.3163) of 1006.34 ± 0.27 kg/m3, a mass density (313.15 K, x1 = 0.3548) of 1006.88 ± 0.3 kg/m3 and a mass density (313.15 K, x1 = 0.4198) of 1007.61 ± 0.34 kg/m3. For the same compound, the mass density (313.15 K, x1 = 0.4762) was 1008.11 ± 0.4 kg/m3, the mass density (313.15 K, x1 = 0.5239) was 1008.46 ± 0.44 kg/m3 and the mass density (313.15 K, x1 = 0.6244) was 1009.1 ± 0.58 kg/m3. The mass density (313.15 K, x1 = 0.629) was 1009.13 ± 0.59 kg/m3, the mass density (313.15 K, x1 = 0.711) was 1009.55 ± 0.72 kg/m3 and the mass density (313.15 K, x1 = 0.7413) was 1009.72 ± 0.78 kg/m3. The mass density (313.15 K, x1 = 0.8776) was 1010.35 ± 1.1 kg/m3, the mass density (313.15 K, x1 = 0.9732) was 1010.72 ± 1.3 kg/m3 and the mass density (313.15 K, x1 = 1) was 1010.79 ± 1.3 kg/m3. For the same compound, the viscosity (318.15 K, x1 = 0.0729) was 2.5 ± 0.4 mPa·s, the viscosity (318.15 K, x1 = 0.1652) was 4.486 ± 0.72 mPa·s and the viscosity (318.15 K, x1 = 0.2234) was 5.632 ± 0.9 mPa·s. It also gave a viscosity (318.15 K, x1 = 0.3163) of 7.302 ± 1.2 mPa·s, a viscosity (318.15 K, x1 = 0.3548) of 7.982 ± 1.3 mPa·s and a viscosity (318.15 K, x1 = 0.4198) of 9.005 ± 1.4 mPa·s. The viscosity (318.15 K, x1 = 0.4762) was 9.9 ± 1.6 mPa·s, the viscosity (318.15 K, x1 = 0.5239) was 10.57 ± 1.7 mPa·s and the viscosity (318.15 K, x1 = 0.6244) was 12.17 ± 1.9 mPa·s. The viscosity (318.15 K, x1 = 0.629) was 12.24 ± 2 mPa·s, the viscosity (318.15 K, x1 = 0.711) was 13.55 ± 2.2 mPa·s and the viscosity (318.15 K, x1 = 0.7413) was 14.02 ± 2.2 mPa·s. The viscosity (318.15 K, x1 = 0.8776) was 16.46 ± 2.6 mPa·s, the viscosity (318.15 K, x1 = 0.9732) was 18.4 ± 3 mPa·s and the viscosity (318.15 K, x1 = 1) was 18.95 ± 3 mPa·s. For the same compound, the mass density (318.15 K, x1 = 0.0729) was 995.65 ± 0.21 kg/m3, the mass density (318.15 K, x1 = 0.1652) was 999.68 ± 0.22 kg/m3 and the mass density (318.15 K, x1 = 0.2234) was 1001.37 ± 0.23 kg/m3. For the same compound, the mass density (318.15 K, x1 = 0.3163) was 1003.18 ± 0.27 kg/m3, the mass density (318.15 K, x1 = 0.3548) was 1003.78 ± 0.3 kg/m3 and the mass density (318.15 K, x1 = 0.4198) was 1004.58 ± 0.34 kg/m3. For the same compound, the mass density (318.15 K, x1 = 0.4762) was 1005.15 ± 0.39 kg/m3, the mass density (318.15 K, x1 = 0.5239) was 1005.54 ± 0.44 kg/m3 and the mass density (318.15 K, x1 = 0.6244) was 1006.25 ± 0.58 kg/m3. It also gave a mass density (318.15 K, x1 = 0.629) of 1006.28 ± 0.58 kg/m3, a mass density (318.15 K, x1 = 0.711) of 1006.71 ± 0.72 kg/m3 and a mass density (318.15 K, x1 = 0.7413) of 1006.88 ± 0.77 kg/m3. For the same compound, the mass density (318.15 K, x1 = 0.8776) was 1007.51 ± 1.1 kg/m3, the mass density (318.15 K, x1 = 0.9732) was 1007.94 ± 1.3 kg/m3 and the mass density (318.15 K, x1 = 1) was 1008 ± 1.3 kg/m3.
